In brackets after ≈: the same amount, converted by molar mass. Several values for one entry are separate records, joined by “and”; a condition that tells them apart may be missing. Equal entries are not always repeated. Ends that are not written are not given here. A value given as a limit tells only on which side of the number the result lay.

Series [1] relates to E. coli. Details: method as in PMID 29671805, PMID 19952307. The settings on record: in vitro activity reported against E. coli; cited from earlier work.
In series [2] the test system is E. coli O157: H7 clinical isolate (AC188). Description: microbe, parasite or virus in culture. The series is classed as cell-based, Escherichia coli O157: H7. On the procedure:
(§1) MBC was determined as described in the M26-A protocol of the CLSI, 1999 [13]. […] Blood agar cultures were incubated at 35 ± 2°C for 18–24 hours, and the number of CFU was estimated.

For series [3], the system named is E. coli O157: H7 (ATCC 43888). Put plainly: microbe, parasite or virus in culture. The series is classed as cell-based, Escherichia coli O157: H7. On the procedure:
as §1

Series [4] concerns E. coli O157: H7 clinical isolate (AC188). Put plainly: microbe, parasite or virus in culture. The settings on record: for SI (selectivity index) E. coli O157: H7 AC188: ratio CC50 in VERO cells / MIC in AC188, maximum evaluated concentration used where CC50 not determined. The series is classed as cell-based, Escherichia coli O157: H7. Here is the method: (§2) MIC was determined using the microdilution method as described in protocol M07-A9 of the Clinical and Laboratory Standards Institute. Briefly, 1:2 serial dilutions of Ib-M peptides in MHB were placed in a 96-well round-bottom plate at concentrations ranging from 100 to 0.05 μM; or reference antibiotics STP and GNT between 200 to 0.1 μM. The bacterial inoculum was prepared from a subculture of E. coli O157: H7 (ATCC 43888 or AC188) in LBB incubated for 18–24 hours at 35 ± 2°C before to the test. The bacteria suspension was diluted to 1x10^8 colony forming units (CFU)/mL, to obtain a turbidity equivalent to 0.5 on the McFarland scale, confirmed by spectrophotometry upon reaching an absorbance between 0.08–0.1 at a wavelength of 625 nm; then a 1:200 dilution in MHB was performed to obtain a final concentration of 5x10^5 CFU/mL. The diluted bacterial suspension was added to the 96-well plate containing the serially diluted peptides. The final volume of 200 μL per well consisted of 100 μl of the compound and 100 μL of diluted bacteria suspension. Negative and positive growth controls were performed by adding only MHB or E. coli O157: H7 with MHB to the wells, respectively. At the end of the incubation time, MIC was determined as the lowest compound concentration at which no bacterial growth was observed.

For series [5], the system named is E. coli O157: H7 (ATCC 43888). Put plainly: microbe, parasite or virus in culture. The settings on record: for SI (selectivity index) E. coli O157: H7 ATCC 43888: ratio CC50 in VERO cells / MIC in ATCC 43888, maximum evaluated concentration used where CC50 not determined. The series is classed as cell-based, Escherichia coli O157: H7. Here is the method: as §2
Series [6] has as its system VERO cells (ATCC CCL-81). Description: Cytotoxicity, MTT. The settings on record: 24 h exposure, 595 nm, mean ± S.D., triplicate in two independent experiments. The series is classed as cell-based. On the procedure:
VERO cells at a concentration of 3x10^4 cells/mL were plated in 96 flat-bottom wells and incubated for 24 hours at 37°C in a 5% CO2 atmosphere. Subsequently, the cells were exposed to 1:2 serial dilutions of Ib-M peptides in the range from 400 to 1.6 μM and the reference antibiotics between 3200 and 1.6 μM. Control cells were maintained without peptides or reference antibiotics. After 24 hours of incubation, VERO cells viability was determined using the MTT (3- (4,5-dimethiazol-2-yl) -2,5-diphenyltetrazole bromide) colorimetric technique (Mosmann, 1983). To do so, 20 μL/well of MTT was added at a concentration of 5 mg/mL and incubated for 4 hours. After that time, the culture medium was removed from the wells, and 100 μL of dimethylsulfoxide was added to solubilize the formazan crystals. Absorbance was determined by spectrophotometry using a wavelength of 595 nm.
The 50% cytotoxic concentrations (CC50) were calculated by sigmoid regression analysis from the inhibition percentages using the XLFit program (^©2019 IDBS). The Selectivity Index (SI) was calculated as the ratio between CC50 in VERO cells and the MICs in E. coli O157: H7 [17]. For those compounds whose CC50 could not be determined, the maximum evaluated concentration was used to calculate the respective SI.

Series [7] deals with E. coli O157: H7 (ATCC 43888). The series is classed as cell-based, Escherichia coli O157: H7. The settings on record: lag phase, 0.5xMIC, at 24 hour, turbidity at 595 nm. Here is the method:
The kinetics of cell growth of E. coli O157: H7 in the presence of the peptides were followed during 24 hours. The tests were performed with the reference strain ATCC 43888, and the antibacterial activity of the compounds was evaluated in the latency phase (lag phase) and the logarithmic phase (log phase).
For the lag phase, E. coli O157: H7 at 5x10^5 CFU/mL with MHB in 96-well plate was treated with Ib-M peptides at a concentrations of 0.5xMIC, 1xMIC, 2xMIC in a final volume of 200 μL/well for 24 hours at 37°C. The turbidity was determined spectrophotometrically at 595 nm for samples taken at 0, 2, 4, 6, 8, 10, 12 and 24 hours.

Setting [8] is: clinical isolate AC188, colony count <= 10 on blood agar, mean ± S.D., triplicate in two independent experiments.
[9] abbreviates: strain ATCC 43888, colony count <= 10 on blood agar, mean ± S.D., triplicate in two independent experiments.
Setting [10] is: clinical isolate AC188, MHB, 5x10^5 CFU/mL, mean ± S.D., triplicate in two independent experiments.
Where [11] appears, read: strain ATCC 43888, MHB, 5x10^5 CFU/mL, mean ± S.D., triplicate in two independent experiments.

Regarding magainin 2, in series [1], the MIC is 8 µM.
Take EWGRRMMGWRPGRRMMRRWW-NH2 [Ib-M5]: the MBC in series [2] (setting [8]) was found to be 7.3 ± 2.6 µM; in series [3] (setting [9]) it was 15.6 ± 7.7 µM. For the same molecule, the MIC in series [4] (setting [10]) worked out at 4.7 ± 1.7 µM; in series [5] (setting [11]), 8.3 ± 3.2 µM. In addition, the “CC50 VERO Cells” value in series [6] turned out to be 315.3 ± 49.1 µM.
For EWGRRMMGRGPGRRMMRWWR-NH2 [Ib-M1], the results for the MBC in series [2] (setting [8]) and in series [3] (setting [9]) were 3.7 ± 1.3 µM and 6.3 ± 0.0 µM, respectively. For the same molecule, the MIC is 1.6 ± 0.0 µM in series [4] (setting [10]) and 4.7 ± 1.7 µM in series [5] (setting [11]). Moreover, the “CC50 VERO Cells” value in series [6] is 395.2 ± 18.3 µM. For the same molecule, the “percentage of E. coli growth inhibition” value in series [7] was “higher than 63%”.
Turning to `CNC(C)C1CCC(N)C(OC2C(N)CC(N)C(OC3OCC(C)(O)C(NC)C3O)C2O)O1` (stereo not shown) [GNT, Gentamicin, reference compound], the MBC in series [2] (Escherichia coli) was 4.2 ± 1.6 µM (≈ 2.01 µg/mL); in series [3] (Escherichia coli, ATCC43888) it was 4.7 ± 1.7 µM (≈ 2.24 µg/mL). For the same molecule, the MIC in series [4] (Escherichia coli) stood at 2.3 ± 0.9 µM (≈ 1.1 µg/mL); in series [5] (Escherichia coli, ATCC43888) it was 1.8 ± 0.6 µM (≈ 0.86 µg/mL). In addition, the “SI (selectivity index) E. coli O157: H7 AC188” value in series [4] is given as more than 1391.3. Besides, the “SI (selectivity index) E. coli O157: H7 ATCC 43888” value in series [5] is recorded as more than 1777.8. The “CC50 VERO Cells” value in series [6] was > 3200 µM and >3200 ± 0 µM.
On to EWGRRMMGWRPGRRMMRWWR-NH2 [Ib-M2], for which the MBC in series [2] (setting [8]) amounted to 4.2 ± 1.6 µM; in series [3] (setting [9]) it was 6.8 ± 3.1 µM. In addition, the MIC in series [4] (setting [10]) came out at 3.7 ± 1.28 µM; in series [5] (setting [11]) it was 4.7 ± 1.7 µM. Also, in series [6], the “CC50 VERO Cells” value was 197.5 ± 2.4 µM.
Turning to EWGRRMMGRGPGRRMMRRWW-NH2 [Ib-M4], the results for the MBC in series [2] (setting [8]) and in series [3] (setting [9]) were 15.6 ± 10.3 µM and 22.9 ± 5.1 µM, respectively. Besides, the figures for the MIC in series [4] (setting [10]) and in series [5] (setting [11]) were 6.3 ± 0.0 µM and 12.5 ± 0.0 µM, respectively. Further, in series [6], the “CC50 VERO Cells” value is more than 400 ± 0.0 µM.
Turning to `[H]/N=C(/N)N[C@H]1[C@H](O)[C@@H](O)[C@H](O[C@@H]2O[C@@H](C)[C@](O)(C=O)[C@H]2O[C@@H]2O[C@@H](CO)[C@H](O)[C@@H](O)[C@@H]2NC)[C@@H](N/C(N)=N\[H])[C@@H]1O` [STP, Streptomycin, reference compound], the MBC came out at 108 µM (≈ 63 µg/mL) in series [2] (Escherichia coli); 108.3 ± 49.2 µM (≈ 63 µg/mL) in series [2] (setting [8]); 11.5 µM (≈ 6.69 µg/mL) in series [3] (Escherichia coli, ATCC43888); 11.5 ± 2.6 µM (≈ 6.69 µg/mL) in series [3] (setting [9]). Also, the MIC in series [4] (Escherichia coli) came out at 66.7 µM (≈ 38.8 µg/mL); in series [4] (setting [10]), 66.7 ± 25.8 µM (≈ 38.8 µg/mL); in series [5] (Escherichia coli, ATCC43888) it was 9.4 µM (≈ 5.47 µg/mL); in series [5] (setting [11]), 9.4 ± 3.4 µM (≈ 5.47 µg/mL). In addition, in series [4], the “SI (selectivity index) E. coli O157: H7 AC188” value is more than 48. In series [5], the “SI (selectivity index) E. coli O157: H7 ATCC 43888” value is recorded as more than 340.4. The “CC50 VERO Cells” value in series [6] was more than 3200 ± 0 µM.
As to EWGRRMMGWGRGRRMMRRWW-NH2 [Ib-M6], the MBC in series [2] (setting [8]) amounted to 10.4 ± 3.2 µM; in series [3] (setting [9]), 11.5 ± 7.3 µM. Also, the MIC in series [4] (setting [10]) amounted to 4.7 ± 1.7 µM; in series [5] (setting [11]), 9.4 ± 3.4 µM. The “CC50 VERO Cells” value in series [6] was found to be 310.9 ± 4.4 µM.
For the molecule lactoferricin, in series [1], the MIC is 2 µM.

The record behind these values is article PMC7018034, “Antimicrobial activity of Ib-M peptides against Escherichia coli O157: H7” (PLoS ONE, 2020).
